Each structure is given as a SMILES string.

The target in the first test is T1, C5a receptor (Homo sapiens, UniProt P21730).
T1 construct: endogenous in cells; host or cells: U937 cells differentiated with 1 mM dibutyryl cAMP
T1 sequence (P21730 1-350): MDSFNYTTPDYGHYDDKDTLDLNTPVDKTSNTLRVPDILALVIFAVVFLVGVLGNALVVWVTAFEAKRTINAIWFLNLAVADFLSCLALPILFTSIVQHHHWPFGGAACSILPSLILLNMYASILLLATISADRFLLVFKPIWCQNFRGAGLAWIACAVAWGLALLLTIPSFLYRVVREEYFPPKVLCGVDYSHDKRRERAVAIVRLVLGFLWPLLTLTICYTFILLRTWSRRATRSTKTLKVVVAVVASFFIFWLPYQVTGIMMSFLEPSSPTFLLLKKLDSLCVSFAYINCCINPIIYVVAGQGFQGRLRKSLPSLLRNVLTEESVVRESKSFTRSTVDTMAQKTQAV
Briefly: standard assay of C5a receptor mediated calcium mobilization. Type of test: cell-based. As to conditions: Table I; asterisk = tested in C5a receptor mediated calcium mobilization assay; read-out: Ca2+ Mob. In short, it runs like this: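 U937 cells differentiated 48 hrs with 1 mM dibutyryl cAMP, loaded with Fluo-3 (10 μg/mL) and read by FLIPR fluorescence (ex 480/em 530). For antagonism, cells preincubated 1 h with 1 μM compound before 0.3 nM human recombinant C5a; activity scored as fold decrease in response versus C5a alone.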
On to `O=C(c1cc(Cl)ccc1-c1ccccc1)N(Cc1ccccc1)Cc1ccc2c(c1)OCC2` [compound 144, N-benzyl-4-chloro-N-(2,3-dihydro-1-benzofuran-6-ylmethyl)-1,1′-biphenyl-2-carboxamide], for which the Ki was under 1 µM.

As for `COc1cccc(CN(CCc2ccccc2)C(=O)c2cc(Cl)ccc2-c2ccccc2)c1` [compound 145, 4-chloro-N-(3-methoxybenzyl)-N-(2-phenylethyl)-1,1′-biphenyl-2-carboxamide], the Ki was under 1 µM.

On to `O=C(c1cc(Cl)ccc1-c1ccccc1)N(Cc1ccccc1)Cc1cccc2ccccc12` [compound 146, N-benzyl-4-chloro-N-(1-naphthylmethyl)-1,1′-biphenyl-2-carboxamide], for which the Ki is under 1 µM.

With `Cc1ccc(-c2ccccc2C(=O)N(Cc2ccccc2)Cc2cc(C)c(O)c(C)c2)s1` [compound 147, N-benzyl-N-(4-hydroxy-3,5-dimethylbenzyl)-2-(5-methylthien-2-yl)benzamide], the Ki was under 1 µM.

Take `Cc1ccc(-c2ccccc2C(=O)N(Cc2ccccc2)Cc2ccc(OC(F)F)cc2)s1` [compound 148, N-benzyl-N-[4-(difluoromethoxy)benzyl]-2-(5-methylthien-2-yl)benzamide]: the Ki is under 1 µM.

As for `Cc1ccc(-c2ccccc2C(=O)N(Cc2ccccc2)Cc2ccc(O)cc2Cl)s1` [compound 149, N-benzyl-N-(2-chloro-4-hydroxybenzyl)-2-(5-methylthien-2-yl)benzamide], the Ki was under 1 µM.

Take `Cc1cc(CN(Cc2ccccc2)C(=O)c2ccccc2-c2ccccc2)cc(C)c1O` [compound 150, N-benzyl-N-(4-hydroxy-3,5-dimethylbenzyl)-1,1′-biphenyl-2-carboxamide]: the Ki was under 1 µM.

Consider `O=C(c1ccccc1-c1ccccc1)N(Cc1ccccc1)Cc1ccc(OC(F)F)cc1` [compound 151, N-benzyl-N-[4-(difluoromethoxy)benzyl]-1,1′-biphenyl-2-carboxamide], for which the Ki was under 1 µM.

The test is the same for the next values; noted with them: Table III; asterisk = tested in C5a receptor mediated calcium mobilization assay; read-out: Ca2+ Mob.
As to `COc1ccc2ccccc2c1C(=O)N(Cc1ccccc1)Cc1cc(C)c(O)c(C)c1` [compound 217, N-benzyl-N-(4-hydroxy-3,5-dimethylbenzyl)-2-methoxy-1-naphthamide], the Ki was under 1 µM.

As for `COc1ccc2ccccc2c1C(=O)N(CCc1ccccc1)C1Cc2ccccc2C1` [compound 220, 2-Methoxy-naphthalene-1-carboxylic acid indan-2-yl-phenethyl-amide], the Ki was under 1 µM.

For the compound `COc1ccc2ccccc2c1C(=O)N(Cc1ccc(C)cc1)C1Cc2ccccc2C1` [compound 223, 2-Methoxy-naphtlalene-1-carboxylic acid (4-methyl-benzyl)-indan-2-yl-amide], the Ki was under 1 µM.

For the compound `COc1ccc2ccccc2c1C(=O)N(Cc1ccccc1C)C1Cc2ccccc2C1` [compound 224, 2-Methoxy-naphthalene-1-carboxylic acid (2-methyl-benzyl)-indan-2-yl-amide], the Ki was under 1 µM.

With `COc1ccc2ccccc2c1C(=O)N(Cc1ccc2c(c1)OCO2)C1Cc2ccccc2C1` [compound 228, 2-Methoxy-naphthalene-1-carboxylic acidbenzo[1,3]dioxol-5-ylmethyl-indan-2-yl-amide], the Ki is under 1 µM.

For `Cc1cccc(CN(C(=O)c2c(C)ccc3ccccc23)C2Cc3ccccc3C2)c1` [compound 230, 2-Methyl-naphthalene-1-carboxylic acid (3-methyl-benzyl)-indan-2-yl-amide], the Ki is under 1 µM.

Turning to `Cc1ccc2ccccc2c1C(=O)N(CCc1ccccc1)C1Cc2ccccc2C1` [compound 235, 2-Methyl-naphthalene-1-carboxylic acid indan-2-yl-phenethyl-amide], the Ki was under 1 µM.

As for `O=C(c1c(O)ccc2ccccc12)N(Cc1ccccc1F)C1Cc2ccccc2C1` [compound 237, 2-Hydroxy-naphthalene-1-carboxylic acid (2-fluoro-benzyl)-indan-2-yl-amide], the Ki is under 1 µM.

As to `Cc1ccc(CN(C(=O)c2c(O)ccc3ccccc23)C2Cc3ccccc3C2)cc1` [compound 238, 2-Hydroxy-naphthalene-1-carboxylic acid (4-methyl-benzyl)-indan-2-yl-amide], the Ki is under 1 µM.

Turning to `O=C(c1c(-c2ccccc2)ccc2ccccc12)N(Cc1ccccc1F)C1Cc2ccccc2C1` [compound 239, 2-Phenyl-naphthalene-1-carboxylic acid (2-fluoro-benzyl)-indan-2-yl-amide], the Ki was under 1 µM.

For the compound `Cc1ccc(CN(C(=O)c2c(-c3ccccc3)ccc3ccccc23)C2Cc3ccccc3C2)cc1` [compound 240, 2-Phenyl-naphthalene 1-carboxylic acid (4-methyl-benzyl)-indan-2-yl-amide], the Ki was under 1 µM.

The values are drawn from patent US7291621B2, “Substituted biaryl amides C5a receptor modulators” (Neurogen Corporation, priority 2002, dated 2007).
